The values that follow are results of earlier work, collected in patent US20090181849A1, “Agricultural chemical containing top dressing composition and process for use thereof” (priority 2007, published 2009).

The structures appear in SMILES notation.

Series [1] deals with S. homoeocarpa. As to conditions: bent grass, blend of Cato:Crenshaw (50:50); disease pressure high.
For series [2], the system named is curvularia fungus. As to conditions: Kentucky bluegrass plants growing in sand; sprayed and fertilized in separate applications; not on bent grass or Bermuda grass plants.

For the compound `CSC(=O)c1cccc2nnsc12` [ASM, acibenzolar-5-methyl], the “reduction of number of S. homoeocarpa infection centers” value in series [1] is given as 38%.

For the compound `O=[N+]([O-])NC1=NCCN1Cc1ccc(Cl)nc1` [imidacloprid], in series [2], the “control of curvularia fungus” value is recorded as “successful control”.
